Measured values from publication PMC11272826, “Metabolism of alcohol ethoxylates (AEs) in rat, hamster, and human hepatocytes and liver S9: a pilot study for metabolic stability, metabolic pathway, and metabolites identification in vitro and in silico” (Archives of Toxicology, 2024).

Columns and labels:
[1] = system: human hepatocytes; experiment: Metabolite profiling by LC-MS in hepatocytes; conditions: for Number of metabolites detected: human hepatocytes; for Percentage of the total peak area, Hepatocytes, Human: 120 min
Procedure: (§2) The hepatocytes were thawed and re-suspended in Celsis InVitro KHB medium (pH 7.4). […] The samples were collected and stored at − 20 °C for further analysis.
(§3) The in vitro metabolism of the five individual homologue AEs (i.e. C8EO4, C10EO5, C12EO4, C16EO8, and C18EO3) was analyzed by liquid chromatography–mass spectrometry (LC–MS). The UPLC-Q-Exactive Orbitrap MS system consisted of a Thermo Vanquish Horizon UHPLC with an autosampler, vacuum degasser, photodiode array (PDA) detector (210–500 nm), and column oven coupled to a Q-Exactive Orbitrap Focus mass spectrometer (Thermo Fisher Scientific, Waltham, MA, USA). The analytical column used was a Waters Acquity BEH C8 2.1 × 50 mm with 1.7 particle size (Waters Corp, Milford, MA, USA). The temperature of the column oven was 40 °C, and the injection volume was 4 μl. The aqueous eluent (A) was 0.1% formic acid (B) was acetonitrile. […] The eluent flow rate was 0.5 ml/min and the flow was directed to the MS through a PDA detector. The data acquisition was performed using positive Electrospray Ionization (ESI+) polarity with a capillary voltage of 3000 V. Capillary temperature was 320 °C and auxiliary gas temperature was 500 °C. The mass spectrometer was operated in the data-dependent MS2 mode, which acquires full-scan MS and MS/MS fragment ion data in the same run. Scan was performed with a resolution of 35,000 (full width at half maximum at m/z 200), while an Automated Gain Control target of a million ions, maximum injection time of 100 ms, and a scan range of 100–1000 m/z were used. […] Nitrogen was used as a sheath gas with 50 units, auxiliary gas with 10 units and as a sweep gas with 5 units. Ion chromatograms were extracted from the total ion chromatograms using calculated monoisotopic accurate masses with 5 mDa window. Calibration curves were generated using an external standard. The data were processed with Thermo Xcalibur 4.1.31.9 software.

[2] = system: hamster hepatocytes; experiment: Metabolite profiling by LC-MS in hepatocytes; conditions: for Number of metabolites detected: hamster hepatocytes; for Percentage of the total peak area, Hepatocytes, Hamster: 120 min
Procedure: as §2, §3

[3] = Metabolic stability in liver S9 fraction (disappearance, half-life, CLint); conditions: for half-life at 1 µM / half-life at 10 µM / microsomal CLint at 1 µM / microsomal CLint at 10 µM: pooled liver S9, pH 7.4; for Relative LC/MS peak area: with cofactors, 60 min
Procedure: (§1) Calibration curves were generated using an external standard.
Intrinsic in vitro clearance was calculated as follows: […]

[4] = system: rat hepatocytes; experiment: Metabolic stability in cryopreserved hepatocytes (disappearance, half-life, CLint); conditions: rat hepatocytes; for Initial concentration remaining after 120 min incubation: range over 1 and 10 µM
Procedure: (§4) The metabolic stability assay was performed in a 48-well plate format (duplicate with cells and single without cells).
as §2
(§5) The UPLC-Q-Exactive Orbitrap MS system consisted of a Thermo Vanquish Horizon UHPLC with an autosampler, vacuum degasser, photodiode array (PDA) detector (210–500 nm), and column oven coupled to a Q-Exactive Orbitrap Focus mass spectrometer (Thermo Fisher Scientific, Waltham, MA, USA). The analytical column used was a Waters Acquity BEH C8 2.1 × 50 mm with 1.7 particle size (Waters Corp, Milford, MA, USA). The temperature of the column oven was 40 °C, and the injection volume was 4 μl. The aqueous eluent (A) was 0.1% formic acid (B) was acetonitrile. […] The eluent flow rate was 0.5 ml/min and the flow was directed to the MS through a PDA detector. The data acquisition was performed using positive Electrospray Ionization (ESI+) polarity with a capillary voltage of 3000 V. Capillary temperature was 320 °C and auxiliary gas temperature was 500 °C. The mass spectrometer was operated in the data-dependent MS2 mode, which acquires full-scan MS and MS/MS fragment ion data in the same run. Scan was performed with a resolution of 35,000 (full width at half maximum at m/z 200), while an Automated Gain Control target of a million ions, maximum injection time of 100 ms, and a scan range of 100–1000 m/z were used. […] Nitrogen was used as a sheath gas with 50 units, auxiliary gas with 10 units and as a sweep gas with 5 units. Ion chromatograms were extracted from the total ion chromatograms using calculated monoisotopic accurate masses with 5 mDa window. Calibration curves were generated using an external standard. The data were processed with Thermo Xcalibur 4.1.31.9 software.
(§6) The first-order rate constants k (min^−1) of the metabolism were obtained from the slope of time versus ln (% remaining) plots using Excel software. All time points (log-scale) were used in fitting the rate constant k based on visual inspection of the curves.
(§7) The in vitro half-life (t1/2) of the test compound(s) is defined as: t1/2=ln2/k
(§8) CLint,inc = k*V/(M), where V is the volume of the incubation and M is the number of cells or amount of S9 protein in the incubation.

[5] = as above; conditions: Sprague Dawley, rat, pooled cryopreserved hepatocytes, pH 7.4
Procedure: as §4, §2, §5, §6, §7, §8

[6] = Metabolic stability in liver S9 fraction (disappearance, half-life, CLint); conditions: for Initial concentration remaining after 60 min incubation: human liver S9, range over 1 and 10 µM; for microsomal CLint at 1 µM / microsomal CLint at 10 µM / half-life at 1 µM / half-life at 10 µM: human; for microsomal CLint at 1 µM / microsomal CLint at 10 µM: pooled liver S9, pH 7.4; for half-life at 1 µM: pooled liver S9, pH 7.4, Half-lives t1/2, Liver S9, 1 μM; for half-life at 10 µM: pooled liver S9, pH 7.4, Half-lives t1/2, Liver S9, 10 μM
Procedure: The metabolic stability assay was performed in a 48-well plate format (duplicate with cofactors and single without cofactors).
Each incubation contained test compound (final concentration of 1 or 10 µM), liver S9 (1.5 mg/ml protein content), Cofactors (1 mM NADPH + 1 mM UDPGA + 0.2 mM PAPS), MgCl2 (2 mM), and potassium phosphate buffer (100 mM at pH 7.4). […] The incubation was carried out at 37 °C for 60 min with and without cofactors. […] The samples were collected and stored at − 20 °C for further analysis.
as §3, §6, §7, §8

[7] = system: human hepatocytes; experiment: Metabolic stability in cryopreserved hepatocytes (disappearance, half-life, CLint); conditions: human hepatocytes; for Initial concentration remaining after 120 min incubation: range over 1 and 10 µM
Procedure: as §4, §2, §5, §6, §7, §8

[8] = as above; conditions: human, pooled cryopreserved hepatocytes, pH 7.4
Procedure: as §4, §2, §5, §6, §7, §8

[9] = Metabolite profiling by LC-MS in buffer (incubation without cells); conditions: 120 min
Procedure: as §2, §3

[10] = system: rat hepatocytes; experiment: Metabolite profiling by LC-MS in hepatocytes; conditions: for Percentage of the total peak area, Hepatocytes, Rat: 120 min; for Number of metabolites detected: rat hepatocytes
Procedure: as §2, §3

[11] = Metabolite profiling by LC-MS in liver S9
Text: as §1

[12] = system: hamster hepatocytes; experiment: Metabolic stability in cryopreserved hepatocytes (disappearance, half-life, CLint); conditions: hamster hepatocytes; for Initial concentration remaining after 120 min incubation: range over 1 and 10 µM
Procedure: as §4, §2, §5, §6, §7, §8

[13] = as above; conditions: Syrian, hamster, pooled cryopreserved hepatocytes, pH 7.4
Procedure: as §4, §2, §5, §6, §7, §8

[14] = system: female Colworth Wistar rats; set-up: method as in Unilever [1978]; conditions: 14C-labelled, oral, rat, ref Unilever [1978], cited from earlier work
[15] = metabolite profile of C8EO4, 10 µM incubation
[16] = hamster liver S9, range over 1 and 10 µM
[17] = rat liver S9, range over 1 and 10 µM
[18] = metabolite profile of C10EO5, 10 µM incubation
[19] = metabolite profile of C10EO5, 10 µM incubation, 60 min
[20] = metabolite profile of C12EO4, 10 µM incubation
[21] = metabolite profile of C12EO4, 10 µM incubation, 60 min

Row | SMILES | Number of metabolites detected [1] | Number of metabolites detected [2] | half-life at 1 µM ([3]; Sprague-Dawley, rat) | half-life at 10 µM ([3]; Sprague-Dawley, rat) | microsomal CLint at 1 µM ([3]; Sprague-Dawley, rat) | microsomal CLint at 10 µM ([3]; Sprague-Dawley, rat) | half-life at 1 µM ([3]; Syrian, hamster) | half-life at 10 µM ([3]; Syrian, hamster) | microsomal CLint at 1 µM ([3]; Syrian, hamster) | microsomal CLint at 10 µM ([3]; Syrian, hamster) | Initial concentration remaining after 60 min incubation [3, 16] | Initial concentration remaining after 60 min incubation [3, 17] | Initial concentration remaining after 120 min incubation [4] | half-life at 1 µM [5] | half-life at 10 µM [5] | microsomal CLint at 10 µM [6] | half-life at 10 µM [6] | half-life at 10 µM [8] | half-life at 1 µM [13] | half-life at 10 µM [13] | other results
1 | CCCCCCCCOCCOCCOCCOCCO [C8EO4] | 21 | 22 | 37.8 min | 58.1 min | 12.2 µL/min/mg | 7.95 µL/min/mg | 7.7 min | 14.5 min | 59.7 µL/min/mg | 31.8 µL/min/mg | 1–6% | 34–49% | 0.1–3% | 3.2 min | 3.6 min | 33.6 µL/min/mg | 13.8 min | 12 min | 4.3 min | 6.5 min | Percentage of the total peak area, Hepatocytes, Human [1, 15]: 0.1%; Percentage of the total peak area, Hepatocytes, Hamster [2, 15]: 0.1%; Initial concentration remaining after 60 min incubation [6]: 1–6%; microsomal CLint at 1 µM [6]: 39.2 µL/min/mg; half-life at 1 µM [6]: 11.8 min; Initial concentration remaining after 120 min incubation [7]: 0.1–3%; half-life at 1 µM [8]: 12.9 min; Percentage of the total peak area, Hepatocytes, Buffer ([9]; metabolite profile of C8EO4, 10 µM incubation without cells): 99.8%; Percentage of the total peak area, Hepatocytes, Rat [10, 15]: 0.1%; Number of metabolites detected [10]: 20; Number of metabolites detected ([11]; hamster liver S9): 20; Number of metabolites detected ([11]; human liver S9): 17; Number of metabolites detected ([11]; rat liver S9): 16; Initial concentration remaining after 120 min incubation [12]: 0.1–3%
2 | CCCCCCCCCCOCCOCCOCCOCCOCCO [C10EO5] | 28 | 28 | 8.3 min | 12 min | 55.7 µL/min/mg | 38 µL/min/mg | 8.1 min | 12 min | 57.3 µL/min/mg | 40 µL/min/mg | 0.01–4% | 0.01–4% | 0.2–4% | 2.9 min | 1.9 min | 170 µL/min/mg | 2.7 min | 4.9 min | 4.5 min | 10.6 min | Percentage of the total peak area, Hepatocytes, Human [1, 18]: 0.3%; Percentage of the total peak area, Hepatocytes, Hamster [2, 18]: 0.7%; Initial concentration remaining after 60 min incubation [6]: 0.01–4%; microsomal CLint at 1 µM [6]: 234 µL/min/mg; half-life at 1 µM [6]: 2 min; Initial concentration remaining after 120 min incubation [7]: 0.2–4%; half-life at 1 µM [8]: 4 min; Percentage of the total peak area, Hepatocytes, Buffer ([9]; metabolite profile of C10EO5, 10 µM incubation without cells): 98.7%; Percentage of the total peak area, Hepatocytes, Rat [10, 18]: 0.8%; Number of metabolites detected [10]: 28; Number of metabolites detected ([11]; human liver S9): 26; Percentage of the total peak area, Liver S9 without cofactors, Hamster [11, 19]: 97.9%; Percentage of the total peak area, Liver S9 without cofactors, Human [11, 19]: 97.7%; Percentage of the total peak area, Liver S9 without cofactors, Rat [11, 19]: 98.2%; Initial concentration remaining after 120 min incubation [12]: 0.2–4%
3 | CCCCCCCCCCCCOCCOCCOCCO [C12EO3] |  |  |  |  |  |  |  |  |  |  |  |  |  |  |  |  |  |  |  |  | Total recovery in urine, feces, air, and carcass of the administered compound ([14]; 4 days): ~100%; 14C in air [14]: about 10%
4 | CCCCCCCCCCCCOCCOCCOCCOCCO [C12EO4] | 28 |  | 26 min | 11 min | 17.5 µL/min/mg | 40.7 µL/min/mg |  | 26 min |  | 17.9 µL/min/mg |  |  |  |  | 8.9 min | 51.2 µL/min/mg | 9 min | 15 min | 789 min | 17 min | Percentage of the total peak area, Hepatocytes, Human [1, 20]: 12.5%; Percentage of the total peak area, Hepatocytes, Hamster [2, 20]: 13.2%; Relative LC/MS peak area ([3]; hamster liver S9, 10 μM): 24%; Relative LC/MS peak area ([3]; rat liver S9, 10 μM): 3%; Relative LC/MS peak area ([4]; 10 μM, 120 min): 12%; Relative LC/MS peak area ([6]; human liver S9, 10 μM, with cofactors, 60 min): 3%; Relative LC/MS peak area ([7]; 10 μM, 120 min): 40%; Percentage of the total peak area, Hepatocytes, Buffer ([9]; metabolite profile of C12EO4, 10 µM incubation without cells): 79.1%; Percentage of the total peak area, Hepatocytes, Rat [10, 20]: 12.7%; Percentage of the total peak area, Liver S9 with cofactors, Hamster [11, 21]: 18.1%; Percentage of the total peak area, Liver S9 with cofactors, Human [11, 21]: 2.1%; Percentage of the total peak area, Liver S9 with cofactors, Rat [11, 21]: 2.0%; Percentage of the total peak area, Liver S9 without cofactors, Hamster [11, 21]: 98.4%; Percentage of the total peak area, Liver S9 without cofactors, Human [11, 21]: 98.8%; Percentage of the total peak area, Liver S9 without cofactors, Rat [11, 21]: 99.7%; Relative LC/MS peak area ([12]; 10 μM, 120 min): 11%
